Test systems include UACC-257 melanoma; EKVX NSCLC; SF-539 CNS; UACC-62 melanoma; 786-0 renal; SF-268 CNS; OVCAR-8 ovarian; SK-MEL-2 melanoma; HL-60(TB) leukemia; NCI-H23 lung.
What all share (assay): NCI anticancer screen, dose series, 48 h

These results are taken from PubChem BioAssay (NCI).

Molecules are shown by their SMILES.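 Growth conditions: 96-well plates. Treatment: test compound, 48 hours, 5 concentrations. Analysis: linear interpolation between bracketing concentrations; unreached endpoints set to highest concentration. Abbreviation: GI50, concentration required for 50% inhibition of growth. At the TGI there is no net growth.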 Bounds are passed on as bounds.

Consider `C#Cc1ccc(NC(=O)c2ccc(/C=C/C(=O)c3nccn3C)cc2)cc1`, for which the GI50 with UACC-257 melanoma is 0.66 µM; in the assay on EKVX NSCLC it was 0.565 µM; with SF-539 CNS, 0.42 µM; in the assay on UACC-62 melanoma, 0.481 µM; with 786-0 renal, 0.454 µM; in the assay with SF-268 CNS, 0.76 µM. Moreover, the GI50 is 0.717 µM in the assay on OVCAR-8 ovarian, 1.63 µM in the assay on SK-MEL-2 melanoma, 0.507 µM in the assay on HL-60(TB) leukemia and 0.46 µM in the assay with NCI-H23 lung. Further, the TGI was 2.21 µM in the assay with UACC-257 melanoma; 1.45 µM in the assay with EKVX NSCLC; 0.801 µM in the assay on SF-539 CNS; 1.12 µM in the assay with UACC-62 melanoma; 0.892 µM with 786-0 renal; 4.5 µM in the assay with SF-268 CNS. In addition, the TGI in the assay on OVCAR-8 ovarian is 8.79 µM; in the assay on SK-MEL-2 melanoma, 6.68 µM; in the assay on HL-60(TB) leukemia, 1.37 µM; in the assay on NCI-H23 lung it was 1.06 µM.
Turning to `COc1cc(Br)c(CC2=NCCc3cc(OC)c(OC)cc32)cc1OC`, the TGI is 70.6 µM in the assay on UACC-257 melanoma; more than 100 µM in the assay on EKVX NSCLC; 87 µM in the assay with SF-539 CNS; more than 100 µM with UACC-62 melanoma; more than 100 µM in the assay on 786-0 renal; more than 100 µM in the assay on SF-268 CNS. Moreover, the TGI is more than 100 µM in the assay on OVCAR-8 ovarian, more than 100 µM in the assay on SK-MEL-2 melanoma, 38 µM in the assay with HL-60(TB) leukemia and more than 100 µM with NCI-H23 lung.
As to `O=C(/C=C/c1ccco1)Nc1ncc(Cc2ccc(F)cc2)s1`, the TGI in the assay on UACC-257 melanoma was more than 100 µM; in the assay with EKVX NSCLC it was more than 100 µM; with SF-539 CNS, 0.379 µM; with UACC-62 melanoma it was more than 100 µM; in the assay with 786-0 renal it was more than 100 µM; in the assay on SF-268 CNS, more than 100 µM. In addition, the TGI is more than 100 µM in the assay with OVCAR-8 ovarian, more than 100 µM with SK-MEL-2 melanoma, 0.185 µM in the assay on HL-60(TB) leukemia and more than 100 µM with NCI-H23 lung. Also, the GI50 is 0.303 µM in the assay with EKVX NSCLC; 0.0686 µM in the assay with SF-539 CNS; 0.0555 µM in the assay on UACC-62 melanoma; 0.157 µM in the assay on 786-0 renal; 0.201 µM in the assay on SF-268 CNS; 0.152 µM in the assay on OVCAR-8 ovarian. Besides, the values for the GI50 with SK-MEL-2 melanoma, in the assay with HL-60(TB) leukemia and with NCI-H23 lung were 0.115 µM, 0.0533 µM and 0.234 µM, respectively.
Regarding `O=[N+]([O-])c1ccccc1C1N2CCCCC2[C@@H]2c3[nH]c4ccccc4c3CCN12` (some centres undefined), the TGI with UACC-257 melanoma was determined as 26.7 µM; with EKVX NSCLC, 41.3 µM; in the assay on SF-539 CNS it was 25.1 µM; with UACC-62 melanoma, 14.4 µM; with 786-0 renal, 29.7 µM; in the assay on SF-268 CNS it was 27.4 µM. The TGI with OVCAR-8 ovarian came out at 39.1 µM; in the assay with SK-MEL-2 melanoma, 26.5 µM; in the assay with HL-60(TB) leukemia, 16.8 µM; with NCI-H23 lung, 27.5 µM.
On to `COc1ccc(C(O)c2cc3c(N)c(C(=O)Nc4cccc(Br)c4)sc3nc2C)cc1` (centres undefined), for which the GI50 was 6.4 µM in the assay with UACC-257 melanoma; 0.197 µM in the assay on EKVX NSCLC; 0.0248 µM with SF-539 CNS; 0.309 µM in the assay with UACC-62 melanoma; 0.225 µM in the assay with 786-0 renal; 0.29 µM with SF-268 CNS. In addition, the GI50 with OVCAR-8 ovarian is 0.139 µM; in the assay on SK-MEL-2 melanoma it was 0.572 µM; in the assay on HL-60(TB) leukemia it was 0.085 µM; in the assay with NCI-H23 lung it was 0.181 µM. The TGI in the assay on UACC-257 melanoma was more than 50.4 µM; with EKVX NSCLC, more than 100 µM; in the assay on SF-539 CNS, 0.0833 µM; in the assay with UACC-62 melanoma, more than 38.6 µM; in the assay on 786-0 renal it was more than 39.4 µM; with SF-268 CNS it was more than 32.6 µM. Also, the TGI with OVCAR-8 ovarian is more than 55.6 µM; in the assay on SK-MEL-2 melanoma it was more than 21.9 µM; with HL-60(TB) leukemia it was 0.242 µM; with NCI-H23 lung, more than 60.4 µM.
In the case of `Oc1ccccc1-n1c(-c2ccccc2)ccc1-c1ccccc1`, the GI50 in the assay with UACC-257 melanoma was 4.2 µM; in the assay on EKVX NSCLC, 2.64 µM; in the assay on SF-539 CNS, 15.2 µM; in the assay on UACC-62 melanoma, 5.43 µM; with 786-0 renal it was 13.2 µM; with SF-268 CNS it was 10.5 µM. Further, the GI50 was 12.1 µM in the assay with OVCAR-8 ovarian, 4.63 µM in the assay on SK-MEL-2 melanoma, 5.2 µM in the assay on HL-60(TB) leukemia and 4.79 µM in the assay with NCI-H23 lung. The TGI with UACC-257 melanoma is 27.3 µM; with EKVX NSCLC it was 25.3 µM; in the assay with SF-539 CNS it was 31.9 µM; in the assay on UACC-62 melanoma it was more than 100 µM; in the assay with 786-0 renal it was 26.5 µM; in the assay with SF-268 CNS, 24.8 µM. Also, the TGI in the assay on OVCAR-8 ovarian was 29.6 µM; in the assay with SK-MEL-2 melanoma, 19.4 µM; in the assay on HL-60(TB) leukemia, more than 100 µM; in the assay on NCI-H23 lung, 33.3 µM.
For the molecule `Cn1c(O)c(C(=O)Nc2ccc([N+](=O)[O-])cc2)c(=O)n(C)c1=S`, the TGI in the assay on UACC-257 melanoma was 6.36 µM; in the assay on EKVX NSCLC, more than 23.2 µM; with SF-539 CNS, 4.2 µM; in the assay with UACC-62 melanoma, 3.64 µM; in the assay on 786-0 renal it was 8.81 µM; in the assay on SF-268 CNS it was 10.7 µM. The TGI is 14.9 µM in the assay on OVCAR-8 ovarian, 5.53 µM in the assay on SK-MEL-2 melanoma, more than 100 µM in the assay with HL-60(TB) leukemia and 3.26 µM in the assay on NCI-H23 lung.
`Cc1ccc(Nc2ccc(Nc3ccc(C)cc3)c3c2C(=O)c2c(O)ccc(O)c2C3=O)cc1`: the TGI in the assay on UACC-257 melanoma, in the assay on EKVX NSCLC, in the assay with SF-539 CNS, in the assay with UACC-62 melanoma, in the assay with 786-0 renal and in the assay on SF-268 CNS was more than 100 µM throughout. For the same molecule, the TGI in the assay on OVCAR-8 ovarian, with SK-MEL-2 melanoma, in the assay on HL-60(TB) leukemia and in the assay on NCI-H23 lung was more than 100 µM throughout.
